Test [1] has as its target EGFR WT (Homo sapiens (Human), UniProt P00533). The test is described as follows: EGFR biochemical assay (AssayQuant chelation-enhanced fluorescence). The following applies: 30 min preincubation, reaction time 360 min.
In test [2] the target is EGFR WT in Ba/F3 cells (Homo sapiens (Human), UniProt P00533). The test is described as follows: Ba/F3 pEGFR assay (AlphaLISA p-EGFR Tyr1068). It is filed as cell-based. The following applies: 2 hrs treatment, media supplemented with EGF. Here is the method: Cellular activity was determined using the Ba/F3 system for studying oncogenic mutant kinases (Warmuth 2007). […] Transduced cells were maintained in RPMI 1640 with 10% FBS. EGFR WT transduced cells were grown in media supplemented with EGF. To assay cellular activity of inhibitors, cells were treated with inhibitor from 1000X DMSO stock dilutions and incubated for 2 hrs at 37° C. 5% CO2. Subsequently, p-EGFR (Tyr1068) was quantified using a commercial sandwich immunoassay (PerkinElmer AlphaLISA SureFire assay; ALSU-PEGFR) according to the manufacturer's instructions. […] Curr Opin Oncol 19, 55-60 (2007), which is incorporated herein in its entirety.

SMILES strings stand for the structures. Bounds are passed on as bounds.

The record followed here is patent publication US20240409609A1, “REVERSIBLE LYSINE COVALENT MODIFIERS OF EGFR AND USES THEREOF” (Terremoto Biosciences, Inc., priority 2021, published 2024).

As a reminder, the IC50 is the point on the concentration scale where inhibition reaches its midpoint.

EGFR WT in Ba/F3 cells, sequence (P00533 25-1210): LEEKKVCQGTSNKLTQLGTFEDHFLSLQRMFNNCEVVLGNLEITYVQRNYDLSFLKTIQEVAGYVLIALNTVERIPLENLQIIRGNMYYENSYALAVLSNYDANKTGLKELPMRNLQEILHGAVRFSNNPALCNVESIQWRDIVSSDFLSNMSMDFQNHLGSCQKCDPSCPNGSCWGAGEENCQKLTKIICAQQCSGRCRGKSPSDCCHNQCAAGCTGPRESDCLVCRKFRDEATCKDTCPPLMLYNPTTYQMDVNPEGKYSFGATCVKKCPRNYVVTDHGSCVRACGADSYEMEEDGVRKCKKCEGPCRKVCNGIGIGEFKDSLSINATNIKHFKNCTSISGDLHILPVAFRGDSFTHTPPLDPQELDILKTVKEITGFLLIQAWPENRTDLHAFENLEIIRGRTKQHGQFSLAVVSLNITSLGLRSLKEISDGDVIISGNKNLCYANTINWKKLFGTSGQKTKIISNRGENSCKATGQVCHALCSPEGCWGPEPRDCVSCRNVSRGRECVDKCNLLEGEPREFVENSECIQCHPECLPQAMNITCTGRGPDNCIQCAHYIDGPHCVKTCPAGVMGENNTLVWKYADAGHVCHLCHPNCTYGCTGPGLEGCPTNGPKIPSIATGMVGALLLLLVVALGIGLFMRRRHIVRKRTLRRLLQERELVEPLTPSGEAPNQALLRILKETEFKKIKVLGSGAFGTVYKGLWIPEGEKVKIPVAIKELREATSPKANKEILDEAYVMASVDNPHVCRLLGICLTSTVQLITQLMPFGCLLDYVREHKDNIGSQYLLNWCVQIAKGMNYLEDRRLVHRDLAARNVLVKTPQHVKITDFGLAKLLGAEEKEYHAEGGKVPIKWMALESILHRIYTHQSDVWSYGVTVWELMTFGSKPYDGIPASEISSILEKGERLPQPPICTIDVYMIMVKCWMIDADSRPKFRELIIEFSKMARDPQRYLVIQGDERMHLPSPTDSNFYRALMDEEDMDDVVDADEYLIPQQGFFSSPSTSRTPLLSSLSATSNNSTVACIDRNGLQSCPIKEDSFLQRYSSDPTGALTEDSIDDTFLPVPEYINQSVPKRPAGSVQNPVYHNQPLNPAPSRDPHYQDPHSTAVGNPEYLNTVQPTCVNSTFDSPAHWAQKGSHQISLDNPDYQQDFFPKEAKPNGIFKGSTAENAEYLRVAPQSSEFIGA
EGFR WT, sequence (P00533 668-1210): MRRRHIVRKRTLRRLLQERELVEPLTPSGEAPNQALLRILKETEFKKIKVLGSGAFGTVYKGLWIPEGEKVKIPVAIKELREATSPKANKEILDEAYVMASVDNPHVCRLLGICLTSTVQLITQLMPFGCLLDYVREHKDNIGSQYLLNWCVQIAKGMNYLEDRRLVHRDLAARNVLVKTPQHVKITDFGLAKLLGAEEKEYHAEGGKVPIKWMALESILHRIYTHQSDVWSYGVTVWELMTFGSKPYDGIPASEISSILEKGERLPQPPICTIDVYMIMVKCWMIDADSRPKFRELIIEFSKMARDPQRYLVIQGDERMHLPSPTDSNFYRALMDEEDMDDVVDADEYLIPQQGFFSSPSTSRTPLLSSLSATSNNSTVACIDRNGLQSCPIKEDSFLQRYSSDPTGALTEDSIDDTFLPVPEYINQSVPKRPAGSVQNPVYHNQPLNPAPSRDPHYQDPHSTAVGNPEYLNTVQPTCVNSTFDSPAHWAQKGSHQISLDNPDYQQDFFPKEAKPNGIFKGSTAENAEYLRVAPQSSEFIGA

With `CC(C)(O)Cn1/c(=N/C(=O)c2ccnc(Oc3cccc(O)c3C=O)c2)[nH]c2ccc(CN3CC(C(C)(C)O)C3)cc21` [Compound 63, (E)-2-(2-formyl-3-hydroxyphenoxy)-N-(1-(2-hydroxy-2-methylpropyl)-6-((3-(2-hydroxypropan-2-yl)azetidin-1-yl)methyl)-1,3-dihydro-2H-benzo[d]imidazol-2-ylidene)isonicotinamide], the IC50 in test [1] is 8.55 nM; in test [2], 4090 nM.

As for `CN1CCN(Cc2ccc3[nH]/c(=N\C(=O)c4ccnc(Oc5cccc(O)c5C=O)c4)n(CC(C)(C)O)c3c2)CC1` [Compound 64], the half-maximal inhibitory concentration (IC50) was 8.96 nM in test [1] and 1420 nM in test [2].

Take `CC(C)Cn1/c(=N/C(=O)c2ccnc(Oc3cccc(O)c3C=O)c2)[nH]c2ccc(CN3CCN(C)CC3)cc21` [Compound 65]: the IC50 in test [1] was 10.1 nM; in test [2], 3550 nM.

On to `CN1CCN(Cc2ccc3[nH]/c(=N\C(=O)c4ccnc(Oc5cc(F)cc(O)c5C=O)c4)n(CC(C)(C)O)c3c2)CC1` [Compound 66], for which the figures for the IC50 in test [1] and in test [2] were 18.6 nM and 2950 nM, respectively.

`CN1CCN(Cc2ccc3[nH]/c(=N\C(=O)c4ccnc(Oc5c(F)ccc(O)c5C=O)c4)n(CC(C)(C)O)c3c2)CC1` [Compound 68]: the half-inhibitory concentration (IC50) came to 9.73 nM in test [1] and 3470 nM in test [2].

Take `CN1CCN(Cc2ccc3[nH]/c(=N\C(=O)c4ccnc(C#Cc5cccc(NS(C)(=O)=O)c5C=O)c4)n(CC(C)(C)O)c3c2)CC1` [Compound 69]: the half-inhibitory concentration (IC50) is 58.2 nM in test [1] and more than 10000 nM in test [2].

`CC(C)(O)Cn1/c(=N/C(=O)c2ccnc(Oc3cccc(O)c3C=O)c2)[nH]c2ccc(N3CCC(C(C)(C)O)CC3)cc21` [Compound 70]: the IC50 in test [1] was 11.5 nM; in test [2], 4580 nM.

`CN1CCN(C(=O)c2ccc3[nH]/c(=N\C(=O)c4ccnc(Oc5cccc(O)c5C=O)c4)n(CC(C)(C)O)c3c2)CC1` [Compound 71]: the IC50 in test [1] stood at 10.4 nM; in test [2], 4950 nM.

Take `CN1CCN(Cc2ccc3[nH]/c(=N\C(=O)c4ccnc(C#Cc5ccc(F)c(O)c5C=O)c4)n(CC(C)(C)O)c3c2)CC1` [Compound 72]: the IC50 in test [1] is 7.8 nM; in test [2] it was more than 10000 nM.

On to `CN1CCN(Cc2ccc3[nH]/c(=N\C(=O)c4ccc(Oc5cccc(O)c5C=O)s4)n(CC(C)(C)O)c3c2)CC1` [Compound 73], for which the IC50 is 10.1 nM in test [1] and 5000 nM in test [2].

Turning to `CC(C)(O)Cn1/c(=N/C(=O)c2ccnc(Oc3cccc(O)c3C=O)c2)[nH]c2ccc(N3CCOCC3)cc21` [Compound 74], the IC50 was 8.75 nM in test [1] and 3230 nM in test [2].

Regarding `COCCN1CCN(Cc2ccc3[nH]/c(=N\C(=O)c4ccnc(Oc5cccc(O)c5C=O)c4)n(CC(C)(C)O)c3c2)CC1` [Compound 75], the IC50 in test [1] stood at 14.6 nM; in test [2], 3000 nM.

Turning to `CC(C)(O)Cn1/c(=N/C(=O)c2ccnc(Oc3cccc(O)c3C=O)c2)[nH]c2ccc(CN3CCOCC3)cc21` [Compound 76], the half-inhibitory concentration (IC50) came to 13.5 nM in test [1] and 2370 nM in test [2].

In the case of `CN1CCN(Cc2ccc3[nH]/c(=N\C(=O)c4ccnc(Oc5ccc(F)c(O)c5C=O)c4)n(CC(C)(C)O)c3c2)CC1` [Compound 77], the IC50 in test [1] was 23.7 nM; in test [2], more than 8080 nM.

Turning to `CC(C)(O)Cn1/c(=N/C(=O)c2ccnc(C#Cc3cccc(O)c3C=O)c2)[nH]c2ccc(CN3CCOCC3)cc21` [Compound 78], the IC50 in test [1] was 8.81 nM; in test [2] it was more than 10000 nM.

For the compound `CC(C)(O)Cn1/c(=N/C(=O)c2ccnc(Oc3cccc(O)c3C=O)c2)[nH]c2ccc(CN3CCC(C(C)(C)O)CC3)cc21` [Compound 80], the IC50 in test [1] was determined as 10.9 nM; in test [2] it was 4770 nM.

With `CN1CCN(Cc2ccc3[nH]/c(=N\C(=O)c4cc(C=O)nc(Oc5cccc(O)c5C=O)c4)n(CC(C)(C)O)c3c2)CC1` [Compound 81], the IC50 in test [1] was 28 nM; in test [2] it was more than 10000 nM.

`CN1CCN(Cc2ccc3[nH]/c(=N\C(=O)c4ccnc(Oc5cccc(O)c5C=O)c4F)n(CC(C)(C)O)c3c2)CC1` [Compound 82]: the IC50 in test [1] was 67.9 nM; in test [2] it was more than 10000 nM.

For `CN1CCN(Cc2ccc3[nH]/c(=N\C(=O)c4ccnc(-n5ccc(-c6cccc(O)c6C=O)n5)c4)n(CC(C)(C)O)c3c2)CC1` [Compound 83], the IC50 in test [1] is 131 nM; in test [2], more than 10000 nM.

Regarding `COC(=O)Nc1cccc(C#Cc2cc(C(=O)/N=c3\[nH]c4ccc(CN5CCN(C)CC5)cc4n3CC(C)(C)O)ccn2)c1C=O` [Compound 84], the concentration for half-maximal inhibition (IC50) in test [1] was determined as 61 nM; in test [2], 879 nM.

As for `CN1CCN(Cc2ccc3[nH]/c(=N\C(=O)c4ccnc(-n5cc(-c6cccc(O)c6C=O)cn5)c4)n(CC(C)(C)O)c3c2)CC1` [Compound 85], the IC50 in test [1] was 52.1 nM; in test [2], more than 8830 nM.

As for `CN1CCN(Cc2ccc3[nH]/c(=N\C(=O)c4cc(Cl)nc(Cc5cccc(O)c5C=O)c4)n(CC(C)(C)O)c3c2)CC1` [Compound 86], the IC50 is 23.8 nM in test [1] and more than 10000 nM in test [2].

For `CN1CCN(Cc2ccc3[nH]/c(=N\C(=O)c4ccnc(C#Cc5cccc(NC(=O)C6CC6)c5C=O)c4)n(CC(C)(C)O)c3c2)CC1` [Compound 87], the IC50 turned out to be 42 nM in test [1] and 267 nM in test [2].

In the case of `CN1CCN(Cc2ccc3[nH]/c(=N\C(=O)c4ccnc(-c5cnn(-c6cccc(O)c6C=O)c5)c4)n(CC(C)(C)O)c3c2)CC1` [Compound 88], the IC50 is 108 nM in test [1] and more than 9970 nM in test [2].

As for `CN1CCN(Cc2ccc3[nH]/c(=N\C(=O)c4ccnc(C#Cc5cc(F)cc(O)c5C=O)c4)n(CC(C)(C)O)c3c2)CC1` [Compound 89], the half-inhibitory concentration (IC50) in test [1] was 49.1 nM; in test [2] it was more than 5820 nM.

Turning to `CC(=O)Nc1cccc(C#Cc2cc(C(=O)/N=c3\[nH]c4ccc(CN5CCN(C)CC5)cc4n3CC(C)(C)O)ccn2)c1C=O` [Compound 90], the IC50 in test [1] stood at 85.4 nM; in test [2] it was 950 nM.

`CN1CCN(C2CCN(c3ccc4c(c3)[nH]/c(=N\C(=O)c3ccnc(Oc5cccc(O)c5C=O)c3)n4CC(C)(C)O)CC2)CC1` [Compound 91]: the IC50 in test [1] was 49.3 nM; in test [2], more than 10000 nM.

As for `CN1CCN(Cc2ccc3[nH]/c(=N\C(=O)c4ccnc(Oc5ccccc5C=O)c4)n(CC(C)(C)O)c3c2)CC1` [Compound 92], the IC50 in test [1] turned out to be 296 nM; in test [2], 9060 nM.

For `CN1CCN(Cc2ccc3[nH]/c(=N\C(=O)c4cccc(Oc5cccc(O)c5C=O)n4)n(CC(C)(C)O)c3c2)CC1` [Compound 93], the IC50 in test [1] was 490 nM; in test [2], more than 10000 nM.

On to `CN1CCN(Cc2ccc3[nH]/c(=N\C(=O)c4ccnc(-c5ccn(-c6cccc(O)c6C=O)n5)c4)n(CC(C)(C)O)c3c2)CC1` [Compound 94], for which the IC50 was 444 nM in test [1] and more than 10000 nM in test [2].

For the compound `CC(=O)Nc1cccc(-c2cnn(-c3cc(C(=O)/N=c4\[nH]c5ccc(CN6CCN(C)CC6)cc5n4CC(C)(C)O)ccn3)c2)c1C=O` [Compound 95], the IC50 in test [1] turned out to be 721 nM; in test [2], 5780 nM.

On to `CC(=O)Nc1cccc(C#Cc2cc(C(=O)/N=c3\[nH]c4ccc(CN5CCN(C)CC5)cc4n3CC(C)(C)O)cc(C)n2)c1C=O` [Compound 97], for which the IC50 in test [1] came to 115 nM; in test [2], 7950 nM.

On to `CC(=O)Nc1cccc(Oc2cc(C(=O)/N=c3\[nH]c4ccc(CN5CCN(C)CC5)cc4n3CC(C)(C)O)ccn2)c1C=O` [Compound 98], for which the IC50 in test [1] worked out at 148 nM; in test [2] it was 1830 nM.

For the compound `CN1CCN(Cc2ccc3[nH]/c(=N\C(=O)c4ccnc(C#Cc5cccc(N)c5C=O)c4)n(CC(C)(C)O)c3c2)CC1` [Compound 99], the figures for the IC50 in test [1] and in test [2] were 129 nM and 1290 nM, respectively.

As to `CN1CCN(Cc2ccc3[nH]/c(=N\C(=O)c4ccnc(C#Cc5cncc(O)c5C=O)c4)n(CC(C)(C)O)c3c2)CC1` [Compound 100], the IC50 in test [1] is 74.3 nM; in test [2], more than 10000 nM.

In the case of `CN1CCN(Cc2ccc3[nH]/c(=N\C(=O)c4ccnc(C#Cc5cccc(NC(=O)C(F)(F)F)c5C=O)c4)n(CC(C)(C)O)c3c2)CC1` [Compound 101], the IC50 in test [1] came out at 200 nM; in test [2], 2570 nM.

In the case of `Cc1cc(C(=O)/N=c2\[nH]c3ccc(CN4CCN(C)CC4)cc3n2CC(C)(C)O)cc(-n2cc(-c3cccc(O)c3C=O)cn2)n1` [Compound 102], the IC50 in test [1] was 348 nM; in test [2], more than 10000 nM.

Turning to `CN1CCN(Cc2ccc3[nH]/c(=N\C(=O)c4ccnc(N5CC(Oc6cccc(O)c6C=O)C5)c4)n(CC(C)(C)O)c3c2)CC1` [Compound 104], the values for the IC50 in test [1] and in test [2] were 344 nM and more than 10000 nM, respectively.

With `CN1CCN(Cc2ccc3[nH]/c(=N\C(=O)c4ccc(Oc5cccc(O)c5C=O)cc4)n(CC(C)(C)O)c3c2)CC1` [Compound 105], the IC50 was 280 nM in test [1] and more than 10000 nM in test [2].

In the case of `CN1CCN(Cc2ccc3[nH]/c(=N\C(=O)c4cc(Oc5cccc(O)c5C=O)c5sccc5c4)n(CC(C)(C)O)c3c2)CC1` [Compound 107], the IC50 in test [1] was determined as 8.71 nM; in test [2] it was 2980 nM.

Consider `CN1CCN(Cc2ccc3[nH]/c(=N\C(=O)c4cncc(Oc5cccc(O)c5C=O)n4)n(CC(C)(C)O)c3c2)CC1` [Compound 108], for which the IC50 is 81 nM in test [1] and more than 10000 nM in test [2].

On to `CN1CCN(Cc2ccc3[nH]/c(=N\C(=O)c4ccc(F)c(Oc5cccc(O)c5C=O)c4)n(CC(C)(C)O)c3c2)CC1` [Compound 110], for which the IC50 was 5.01 nM in test [1] and 1490 nM in test [2].

For the compound `CN1CCN(Cc2ccc3[nH]/c(=N\C(=O)c4ccnc(OCc5cccc(O)c5C=O)c4)n(CC(C)(C)O)c3c2)CC1` [Compound 112], the IC50 in test [1] was more than 1000 nM; in test [2], 9870 nM.
